Where two headings read alike, the source gives them in different places.
Tests used:
MOLT-4 cancer cell line = test: Cell proliferation assay, MOLT-4 cancer cell line (ATPlite); type: cell-based; details: Homo sapiens;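 also: luminescence read-out, percent growth versus compound-free DMSO wells as maximum growth, start-of-incubation signal separating growth from cell death, IC50 from logistic curve fit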
Aurora A = target: T1, Aurora A (Homo sapiens, UniProt O14965); test: Biochemical Aurora A kinase assay (LANCE Ultra TR-FRET); details: for AurA Selectivity: IC50 AurA/IC50 TTK (biochemical assays); for IC50: full-length Aurora A, 2 μM ATP
T1 construct: full-length Aurora A enzyme (Carna Biosciences, cat. no. 05-101); purchased Carna Biosciences 05-101
T1 sequence (O14965 1-403): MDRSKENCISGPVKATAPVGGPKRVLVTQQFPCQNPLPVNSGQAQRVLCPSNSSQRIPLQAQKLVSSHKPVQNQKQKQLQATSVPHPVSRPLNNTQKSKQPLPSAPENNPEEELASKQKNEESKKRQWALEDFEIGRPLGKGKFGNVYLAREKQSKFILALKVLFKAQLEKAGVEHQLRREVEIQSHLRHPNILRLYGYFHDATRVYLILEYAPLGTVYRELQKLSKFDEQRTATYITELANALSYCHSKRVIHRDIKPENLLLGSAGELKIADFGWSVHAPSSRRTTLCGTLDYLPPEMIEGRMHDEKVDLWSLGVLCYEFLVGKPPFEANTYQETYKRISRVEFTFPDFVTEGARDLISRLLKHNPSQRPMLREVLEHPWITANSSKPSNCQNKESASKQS
Procedure: To determine the inhibitory activity of the compounds on Aurora A, the LANCE® Ultra TR-FRET assay (Perkin Elmer) was used. […] After 2 hours, the reaction was stopped by the addition of 5 μl 100 mM EDTA. […] Time-resolved fluorescence was measured on an Envision multilabel reader (Perkin Elmer, Waltham, Mass., USA). IC50 were calculated using XLfit™5 software (ID Business Solutions, Ltd., Surrey, U.K.).

Aurora C = target: T2, Aurora C (Homo sapiens, UniProt Q9UQB9); test: Biochemical Aurora C kinase assay (LANCE Ultra TR-FRET); details: for AurC Selectivity: IC50 AurC/IC50 TTK (biochemical assays); for IC50: full-length Aurora C, 5 μM ATP
T2 construct: full-length Aurora C enzyme (Carna Biosciences, cat. no. 05-103); purchased Carna Biosciences 05-103
T2 sequence (Q9UQB9 1-309): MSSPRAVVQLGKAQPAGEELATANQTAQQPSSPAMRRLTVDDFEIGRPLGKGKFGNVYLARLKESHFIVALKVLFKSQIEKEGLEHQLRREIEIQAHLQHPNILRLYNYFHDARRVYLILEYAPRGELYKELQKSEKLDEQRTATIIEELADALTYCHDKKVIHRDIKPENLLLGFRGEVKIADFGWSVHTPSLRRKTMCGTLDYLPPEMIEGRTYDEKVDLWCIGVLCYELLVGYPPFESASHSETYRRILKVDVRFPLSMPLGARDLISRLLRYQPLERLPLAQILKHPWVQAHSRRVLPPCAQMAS
Procedure: To determine the inhibitory activity of the compounds on Aurora C, the LANCE® Ultra TR-FRET assay (Perkin Elmer) was used. […] After pre-incubation of 1 hour in the dark at room temperature, ULightTM-labeled PLK([MUT]) substrate peptide (Perkin Elmer, cat. no. TRF-0110) and ATP were added, to start the reaction. […] After 3 hours, the reaction was stopped by the addition of 5 μl 100 mM EDTA. […] Time-resolved fluorescence was measured on an Envision multilabel reader (Perkin Elmer, Waltham, Mass., USA). IC50 were calculated using XLfitTM5 software (ID Business Solutions, Ltd., Surrey, U.K.).

[1] = target: Polo-like kinase 1 (PLK1) (Homo sapiens, UniProt P53350); test: Biochemical Polo-like kinase 1 kinase assay (LANCE Ultra TR-FRET); details: for PLK1 Selectivity: IC50 PLK1/IC50 TTK (biochemical assays)
Procedure: To determine the inhibitory activity of the compounds on Polo-like kinase 1 (PLK1), the LANCE® Ultra TR-FRET assay (Perkin Elmer) was used. […] After 4 hours, the reaction was stopped by the addition of 5 μl 100 mM EDTA. […] Time-resolved fluorescence was measured on an Envision multilabel reader (Perkin Elmer, Waltham, Mass. USA). IC50 were calculated using XLfit™5 software (ID Business Solutions, Ltd., Surrey, U.K.).

[2] = test system: HeLa-Matu cervical tumor cell; details: cited from earlier work
human cancer cell lines = details: Colombo et al.; read-out: IC50 proliferation of cancer cell lines from different tumor origin; cited from earlier work
A375 = details: mouse xenograft model; cited from earlier work
A2780 = details: mouse xenograft model; cited from earlier work
[3] = MOLT-4, worded 'TTK cellular assay', read-out: IC50 in the TTK cellular assay

Sequence of Polo-like kinase 1 (PLK1) (P53350 whole entry): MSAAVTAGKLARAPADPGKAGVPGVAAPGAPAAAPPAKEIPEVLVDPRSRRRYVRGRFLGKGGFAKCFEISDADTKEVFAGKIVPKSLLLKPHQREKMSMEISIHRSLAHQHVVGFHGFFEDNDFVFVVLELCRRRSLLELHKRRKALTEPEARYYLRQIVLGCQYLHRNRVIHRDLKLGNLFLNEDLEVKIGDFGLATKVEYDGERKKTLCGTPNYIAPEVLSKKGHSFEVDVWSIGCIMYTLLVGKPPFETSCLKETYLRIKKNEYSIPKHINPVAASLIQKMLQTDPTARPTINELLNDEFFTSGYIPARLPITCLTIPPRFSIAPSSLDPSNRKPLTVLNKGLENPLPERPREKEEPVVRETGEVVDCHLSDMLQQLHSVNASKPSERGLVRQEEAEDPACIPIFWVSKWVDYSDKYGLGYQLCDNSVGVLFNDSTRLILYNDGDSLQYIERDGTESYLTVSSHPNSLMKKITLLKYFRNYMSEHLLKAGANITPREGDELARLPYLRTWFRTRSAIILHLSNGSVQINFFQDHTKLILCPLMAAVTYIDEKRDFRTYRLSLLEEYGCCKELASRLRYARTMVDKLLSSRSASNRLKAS

IC50 (MOLT-4 cancer cell line; [3]) [nM]	AurA Selectivity (Aurora A)	IC50 (Aurora A) [nM]	AurC Selectivity (Aurora C)	IC50 (Aurora C) [nM]	IC50 [1] [nM]	PLK1 Selectivity [1]	Compound	IC50 (MOLT-4 cancer cell line; MOLT-4, read-out: IC50 in the TTK cellular assay) [nM]	Efficacy of paclitaxel in combination ([2]; HeLa-Matu mouse xenograft model, with paclitaxel)	HeLa-Matu cervical tumor cell growth ([2]; mouse xenograft model)	IC50 (human cancer cell lines) [nM]	Tumor growth, A375 xenograft (A375)	Tumor growth, A2780 xenograft (A2780)
< 50	>100	≥ 100	>500	≥ 100	≥ 250	>500	CCOCCOCCn1nc(CC)c(NC(=O)c2ccn3c2CCc2cnc(Nc4ccc(N5CCNCC5)cc4OC)nc2-3)c1CC [Example 151, N-[1-[2-(2-ethoxyethoxy)ethyl]-3,5-diethyl-pyrazol-4-yl]-2-(2-methoxy-4-piperazin-1-yl-anilino)-5,6-dihydropyrimido[4,5-e]indolizine-7-carboxamide]						
< 50	>200	≥ 100	>500	≥ 100	≥ 250	>500	COCCOCCOCCn1nc(C)c(NC(=O)c2ccn3c2CCc2cnc(Nc4ccc(N5CCNCC5)cc4OC)nc2-3)c1C [Example 156, N-[1-[2-[2-(2-methoxyethoxy)ethoxy]ethyl]-3,5-dimethyl-pyrazol-4-yl]-2-(2-methoxy-4-piperazin-1-yl-anilino)-5,6-dihydropyrimido[4,5-e]indolizine-7-carboxamide]						
< 50	>200	≥ 100	>500	≥ 100	≥ 250	>500	CCNCC(=O)N1CCN(c2ccc(Nc3ncc4c(n3)-n3ccc(C(=O)Nc5c(C)nn(CCOCCOCCOC)c5C)c3CC4)c(OC)c2)CC1 [Example 157, 2-[4-[4-[2-(Ethylamino)acetyl]piperazin-1-yl]-2-methoxy-anilino]-N-[1-[2-[2-(2-methoxyethoxy)ethoxy]ethyl]-3,5-dimethyl-pyrazol-4-yl]-5,6-dihydropyrimido[4,5-e]indolizine-7-carboxamide]						
< 50	>200	≥ 100	>500	≥ 100	≥ 250	>500	CCNCC(=O)N1CCN(c2ccc(Nc3ncc4c(n3)-n3ccc(C(=O)Nc5c(CC)nn(CCOCCOC)c5CC)c3CC4)c(OC)c2)CC1 [Example 158, N-[3,5-diethyl-1-[2-(2-methoxyethoxy)ethyl]pyrazol-4-yl]-2-[4-[4-[2-(ethylamino)acetyl]piperazin-1-yl]-2-methoxy-anilino]-5,6-dihydropyrimido[4,5-e]indolizine-7-carboxamide]						
< 50	>200	≥ 100	>200	≥ 100	≥ 250	>500	CCc1nn(CCOCCOC)c(CC)c1NC(=O)c1ccn2c1CCc1cnc(Nc3ccc(N4CCN(C(=O)COC)CC4)cc3OC)nc1-2 [Example 159, N-[3,5-diethyl-1-[2-(2-methoxyethoxy)ethyl]pyrazol-4-yl]-2-[2-methoxy-4-[4-(2-methoxyacetyl)piperazin-1-yl]anilino]-5,6-dihydropyrimido[4,5-e]indolizine-7-carboxamide]						

Continued, compound first:

Compound	IC50 (MOLT-4 cancer cell line; [3]) [nM]	AurA Selectivity (Aurora A)	IC50 (Aurora A) [nM]	AurC Selectivity (Aurora C)	IC50 (Aurora C) [nM]	IC50 [1] [nM]	PLK1 Selectivity [1]	IC50 (MOLT-4 cancer cell line; MOLT-4, read-out: IC50 in the TTK cellular assay) [nM]	Efficacy of paclitaxel in combination ([2]; HeLa-Matu mouse xenograft model, with paclitaxel)	HeLa-Matu cervical tumor cell growth ([2]; mouse xenograft model)	IC50 (human cancer cell lines) [nM]	Tumor growth, A375 xenograft (A375)	Tumor growth, A2780 xenograft (A2780)
COCCn1nc(C)c(NC(=O)c2ccn3c2CCc2cnc(Nc4ccc(N5CCN(C(=O)C6CN(C)C6)CC5)cc4OC)nc2-3)c1C [Example 155, N-[1-(2-methoxyethyl)-3,5-dimethyl-pyrazol-4-yl]-2-[2-methoxy-4-[4-(1-methylazetidine-3-carbonyl)piperazin-1-yl]anilino]-5,6-dihydropyrimido[4,5-e]indolizine-7-carboxamide]	< 50	>200	≥ 100	>500	≥ 100	≥ 250	>500						
COCCOCCOCCn1nc(C)c(NC(=O)c2ccn3c2CCc2cnc(Nc4ccc(-c5c(C)nn(C)c5C)cc4OC)nc2-3)c1C [Example 160, N-[1-[2-[2-(2-methoxyethoxy)ethoxy]ethyl]-3,5-dimethyl-pyrazol-4-yl]-2-[2-methoxy-4-(1,3,5-trimethylpyrazol-4-yl)anilino]-5,6-dihydropyrimido[4,5-e]indolizine-7-carboxamide]			≥ 100		≥ 100	≥ 250		< 50					
CC(C)CNc1nccn2c(-c3ccc(C(=O)NC4CC4)cc3)cnc12 [Mps-BAY2b]									increased the efficacy of paclitaxel	inhibit HeLa-Matu cervical tumor cell growth			
CCc1cccc(CC)c1NC(=O)c1nn(C)c2c1CCc1cnc(Nc3ccc(C(=O)NC4CCN(C)CC4)cc3OC(F)(F)F)nc1-2 [NMS-P715]											≥ 1000	inhibited tumor growth	inhibited tumor growth
